Source: patent publication US10485772B2, “Compositions for modulating cancer stem cells and uses therefor” (University of Canberra, priority 2014, dated 2019)

Test system: MCF-7 cells (mammospheres)
Assay: Mammosphere assay in MCF-IM model
Type: cell-based, human
Settings: bisindolylmaleimide-I 1 μM for 1 hr prior to PMA for 6 days
Method: The following mammosphere culture media components were purchased from StemCell Technologies Inc., BC, Canada: Mammocult Basal medium (Human) (catalogue number-05621), Mammocult Proliferation Supplements (Human) (catalogue number-05622), heparin (catalogue number-07904) and hydrocortisone (catalogue number-[…]). Hydrocortisone powder was freshly dissolved into mammocult basal medium to get 10^−4M solution on the day of experiment. 50 mL of
Mammocult complete media was then prepared by addition of 45 mL Mammocult basal medium, 5 mL mammocult proliferation supplements, 100 μL of the 0.2% heparin stock, 500 μL of 10^−4M stock of hydrocortisone and 50 μL of the PNS. Mammocult complete media was either used on same day or stored for not more than 7 days at 4° C.
MCF-7 cells were grown in a 175 cm^2 cell culture flask and harvested using a cell scraper (Zellschaber, Switzerland) or FACS sorted as specified below. Importantly trypsin treatment was never used for harvesting cells as it interferes with the mammosphere assay. Harvested cells were then re-suspended in 1 mL mammocult complete media and centrifuged at 500×g for 3 minutes at 20° C. The cell pellet was then re-suspended in 1 mL mammocult complete media before counting the cells on the Vi-CELL counter. Cell dilutions were then prepared to stain 40,000 cells/2 mL and 2 mL of cells were seeded in the 6 well-ultra low adherent, flat bottom plates (Costar, Corning Inc, Corning, N.Y., USA). Cells were either stimulated or not treated according to the experimental protocol and incubated at 37° C., under 5% CO2 for 7 days in a Hepa-Filtered Infrared (IR) Incubator (Forma Scientific Inc., Materietta, Ohio). Mammospheres larger than 60 μm were counted per well on day 7 and pictures were taken with an Olympus microscope. All the mammosphere assays were performed in duplicate wells and the entire procedure was repeated at least twice.
Mammosphere culture media components were purchased from StemCell Technologies and mammosphere assays were performed as recommended by the manufacturer's guidelines. Briefly, 40,000 cells/2 ml cell dilutions were then prepared and 2 ml of cells were seeded in the 6 well-ultralow adherent, flat bottom plates (Costar). Mammospheres larger than 60 μm were counted per well on day 7 and pictures were taken.

SMILES: CN(C)CCCn1cc(C2=C(c3c[nH]c4ccccc34)C(=O)NC2=O)c2ccccc21 [bisindolylmaleimide-I]
- mammosphere formation: reduce mammosphere formation
- mammosphere formation (listed as Broad spectrum PKC pathway inhibitor): inhibition of EMT and CSC formation
